In the supplement of paper PMC10307832:

Assays:
Assay in all cases: relative viability (nuclei count vs DMSO), 5 days (fraction); higher = more cells survive
[1] = compound: O=c1[nH]cc(F)c(=O)[nH]1 [5-Fluorouracil] + CC1(C)CCC(c2ccc(Cl)cc2)=C(CN2CCN(c3ccc(C(=O)NS(=O)(=O)c4ccc(N[C@H](CCN5CCOCC5)CSc5ccccc5)c(S(=O)(=O)C(F)(F)F)c4)cc3)CC2)C1 [Navitoclax] (partner 0.5 µM)
In short: (§1)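 Nuclei were stained with Hoechst during a one-step fixation (final 0.05% Triton X-100, 1% formaldehyde, 1 ug/ml Hoechst) carried out 5 days after dosing, then counted on 4× images. The cells, lung cancer lines in 1536-well plates, had been dosed by pin tool the day after seeding with one drug alone or a fixed anchor-drug dose plus five library-drug doses (not always all listed) in √10 steps. Relative viability is the nuclei count in treated wells divided by that in vehicle wells, and each value is the median of duplicate plates.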

[2] = compound: O=c1[nH]cc(F)c(=O)[nH]1 [5-Fluorouracil] + C[C@@H](Oc1cc(-c2cnn(C3CCNCC3)c2)cnc1N)c1c(Cl)ccc(F)c1Cl [Crizotinib] (partner 1 µM)
In short: as §1

[3] = compound: CC1=C(CC(=O)O)c2cc(F)ccc2/C1=C\c1ccc([S+](C)[O-])cc1 [Sulindac] + CC(C)C[C@H](NC(=O)[C@H](Cc1ccccc1)NC(=O)c1cnccn1)B(O)O [Bortezomib] (partner 0.002 µM)
In short: as §1

[4] = compound: CC1=C(CC(=O)O)c2cc(F)ccc2/C1=C\c1ccc([S+](C)[O-])cc1 [Sulindac] + O=C(c1cc(Cc2n[nH]c(=O)c3ccccc23)ccc1F)N1CCN(C(=O)C2CC2)CC1 [Olaparib] (partner 8 µM)
In short: as §1

Cell Line: UMC-11
- relative viability ([1]; first compound 0.02 µM): 0.386
- relative viability ([1]; first compound 0.2 µM): 0.322
- relative viability ([1]; first compound 0.6325 µM): 0.286
- relative viability ([1]; first compound 2 µM): 0.241
- relative viability ([2]; first compound 0.02 µM): 0.52
- relative viability ([2]; first compound 0.2 µM): 0.441
- relative viability ([2]; first compound 0.6325 µM): 0.303
- relative viability ([2]; first compound 2 µM): 0.232
- relative viability ([3]; first compound 0.08 µM): 0.952
- relative viability ([3]; first compound 0.253 µM): 0.996
- relative viability ([3]; first compound 0.8 µM): 0.359
- relative viability ([3]; first compound 2.53 µM): 0.703
- relative viability ([3]; first compound 8 µM): 0.846
- relative viability ([4]; first compound 0.08 µM): 0.463
- relative viability ([4]; first compound 0.253 µM): 0.342
- relative viability ([4]; first compound 0.8 µM): 0.42
- relative viability ([4]; first compound 2.53 µM): 0.339
- relative viability ([4]; first compound 8 µM): 0.332
